Source: patent publication US20010018416A1, “COMPOSITIONS AND METHODS FOR TREATING HEPATITIS-C” (priority 1997, published 2001)

Experiments:
[1] = system: A 549 cells (human small cell lung carcinoma); assay: DNA fragmentation test (LDH released by dying cells measured by optic density) after TNF-α; assay type: cell-based; conditions: A549; TNF-α 10 nanograms/ml; GMDP 1 and 2 μg/ml; 8 hours
Procedure: The LDH analysis procedure is described above. A 549 cells (human small cell lung carcinoma) were utilized for the DNA fragmentation test and treated with GMDP 1 ug/ml and with GMDP 2 ug/ml for 2 hours and then treated with human TNF-α (Sigma Corp., St. Louis, Mo.). FIGS. 8 and 9 are plots of the optical density measurements of two different scans each with six samples utilizing the DNA fragmentation procedure. […] TNF-α levels were 10 nanograms/ml for all samples, while samples 1-4 contained no GMDP, sample 5 contained 1 μg/ml GMDP and sample 6 contained 2 μg/ml GMDP. Sample 1 was analyzed after 0 hours, sample 2 analyzed after 2 hours, sample 3 analyzed after 4 hours, while samples 4, 5, and 6 were analyzed after 8 hours. Accordingly, only samples 5 and 6 from each scan measure cell protection after 8 hours. […] In other words, the higher purity GMDP drastically increases cell protection and antiapoptotic activity.

hepatitis-C = system: hepatitis-C
Procedure: Twelve patients in the active stage of hepatitis-C were selected for this study. The study group consisted of eight females and four males between 36 and 57 years of age. […] The control powder contained vegetable oil, corn syrup solids, and lactose. Quality control (to check for product identity and purity) was done by HPLC through comparisons with those obtained from reference samples from Sigma Corp, St Louis, Mo. The GMDP powder was diluted with 10 ml sterile distilled water. The daily GMDP dosage ranged from 0.1-0.5 mg/kg of the patient's body weight for blastolysine 80-120 mg/kg of body weight. Statistical analysis were done with Epi-Info Statistical Package (Center for Disease Control and Prevention, Atlanta, Ga.) with two way comparison by the Fischer's exact test (two tailed). Eleven patients were orally administered GMDP at dosage of […] daily in a water solution for one or two months. One patient with 44000×1000 viral load and early liver cirrhosis was treated for one year. GMDP at dosage of 0.1-0.5 mg/kg daily was administered to 11 patients.

[2] = system: human CD4+ lymphocytes taken from AIDS patient; assay: LDH assay of the inhibition of Fas antigen mediated apoptosis in vitro; assay type: cell-based; conditions: LDH release 16 h after anti-Fas antibodies, FIG. 3
Procedure: The following cell lines were used for this assay: A549 (human lung carcinoma cells), A431 (human […]), L929 (mouse […]), human CD4+ lymphocytes taken from AIDS patient. All cells are commercially available from ATCC. They were maintained in DME medium supplemented with 10% FCS and glutamine in CO2 incubator. Lactate dehydrogenase (LDH) assay Cells were seeded into 35 mm Petri dishes and grown up to 70% confluency. Then they were treated with human recombinant antibodies against Fas antigen (gift from […] Co.) in the concentration indicated in the figures. In cases where the cells were not spontaneously sensitive to Fas ligand induced cytolysis, cycloheximide (CHX), a powerful blocker of the protein synthesis, which sensitizes the cells to anti Fas antibodies action, was used in concentration of 25 μg/ml. Sixteen hours after treatment, 20 μl samples of the cultured supernatants were removed and assayed for LDH release by the Cytotox 96 assay (Promega Biotech., Madison, Wis.)in accordance with the manufacturer's instructions. This methodology is based upon the fact that when cells are dying they are releasing LDH. […] These samples were assayed in triplicate on an EL340 Microplate reader (Bic) Tech Instruments Inc.) at 490 nm wave length. The average of these three readings was plated on the graphs (FIGS. 1, 2, 3 and 4).

| SMILES | optical density relative to cells exposed to GMDP of about 97.3% purity [1] | reduction in bilirubin concentration (hepatitis-C; 2 patients with elevated level) | decrease of LDH and GGTP activity (hepatitis-C; 7 patients who had elevated level) | effect on AST and APT activity (hepatitis-C; 7 patients who had elevated level of these enzymes) | fatigue and nausea (hepatitis-C; after first week, all patients who had these symptoms) | serum HPC RNA test, reduction of viral load (hepatitis-C; after the first three weeks of treatment, all patients) | overall clinical conditions (hepatitis-C; all patients treated, follow up period) | toxic effects (hepatitis-C; human, in vivo, po) | free iron test (hepatitis-C; one patient with high levels of free iron) | effect on alkaline phosphates activity (hepatitis-C; one patient with previously elevated level) | follow-up liver biopsy, pathology examination (hepatitis-C; one patient, end of one year treatment) | follow-up liver biopsy (hepatitis-C; two patients with diagnosed mild necrosis and fibrosis) | maximum inhibition of Fas Ag antibodies mediated cell lysis (reduction) [2] [%] |
| --- | --- | --- | --- | --- | --- | --- | --- | --- | --- | --- | --- | --- | --- |
| CC(=O)NC1C(OC2C(CO)OC(O)C(NC(C)=O)C2OC(C)C(=O)NC(C)C(=O)NC(CCC(=O)O)C(N)=O)OC(CO)C(O)C1O [GMDP of about 98.3% purity, N-acetyl-D-glucosaminyl-(β1-4)-N-acetylmuramyl-L-alanyl-D-isoglutamine] | less than ½ |  |  |  |  |  |  |  |  |  |  |  |  |
| CC(=O)NC1C(OC2C(CO)OC(O)C(NC(C)=O)C2OC(C)C(=O)NC(C)C(=O)NC(CCC(=O)O)C(N)=O)OC(CO)C(O)C1O [GMDP, N-acetyl-D-glucosaminyl-(β1-4)-N-acetylmuramyl-L-alanyl-D-isoglutamine] |  | 19%(3) | 34% (6) | beneficial effect | completely subsided | two-three fold reduction | improved | No patients experienced toxic effects | full normalization | Lowering effect | no sign of previous necrosis and cirrhosis | no necrosis or fibrotic change was detectable | 72 |
